Reference: the supplement of paper PMC10307832

Legend:
Test in all cases: relative viability (nuclei count vs DMSO), 5 days (fraction); higher = more cells survive
[1] = compound: Cc1ccc(Nc2nccc(N(C)c3ccc4c(C)n(C)nc4c3)n2)cc1S(N)(=O)=O [Pazopanib] + Cc1nc(NC(=O)N2CCC[C@H]2C(N)=O)sc1-c1ccnc(C(C)(C)C(F)(F)F)c1 [Alpelisib] (partner 2 µM)
Summary of the method: (§1)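 Medians of duplicate plates are given as relative viability. That measure is the nuclei count in treated wells divided by the count in vehicle wells. Counts were taken on 4× images of lung cancer cell lines in 1536-well plates, 5 days after pin-tool dosing the day after seeding with one drug alone or a fixed anchor-drug dose plus five library-drug doses (not always all listed) in √10 steps.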

[2] = compound: Cc1ccc(C(=O)Nc2ccc(CN3CCN(C)CC3)c(C(F)(F)F)c2)cc1C#Cc1cnc2cccnn12 [Ponatinib] + COc1cccc2cc(-c3nc([C@H]4CC[C@H](C(=O)O)CC4)n4ncnc(N)c34)[nH]c12 [OSI-027] (partner 0.5 µM)
Summary of the method: as §1

[3] = compound: Cc1ccc(C(=O)Nc2ccc(CN3CCN(C)CC3)c(C(F)(F)F)c2)cc1C#Cc1cnc2cccnn12 [Ponatinib] + Cc1cc(Nc2cc(N3CCN(C)CC3)nc(Sc3ccc(NC(=O)C4CC4)cc3)n2)n[nH]1 [Tozasertib] (partner 0.1 µM)
Summary of the method: as §1

[4] = compound: Cc1ccc(C(=O)Nc2ccc(CN3CCN(C)CC3)c(C(F)(F)F)c2)cc1C#Cc1cnc2cccnn12 [Ponatinib] + NC(=O)Nc1cc(-c2cccc(F)c2)sc1C(=O)N[C@H]1CCCNC1 [AZD7762] (partner 0.2 µM)
Summary of the method: as §1

Row | Cell Line | relative viability ([1]; first compound 0.01 µM) | relative viability ([1]; first compound 0.03162 µM) | relative viability ([1]; first compound 0.1 µM) | relative viability ([1]; first compound 0.3162 µM) | relative viability ([1]; first compound 1 µM) | relative viability ([2]; first compound 0.002 µM) | relative viability ([2]; first compound 0.006325 µM) | relative viability ([2]; first compound 0.06325 µM) | relative viability ([2]; first compound 0.2 µM) | relative viability ([3]; first compound 0.002 µM) | relative viability ([3]; first compound 0.006325 µM) | relative viability ([3]; first compound 0.06325 µM) | relative viability ([3]; first compound 0.2 µM) | relative viability ([4]; first compound 0.002 µM) | relative viability ([4]; first compound 0.006325 µM) | relative viability ([4]; first compound 0.06325 µM) | relative viability ([4]; first compound 0.2 µM)
1 | NCI-H1437 | 0.938 | 1.02 | 0.964 | 0.938 | 1.05 | 0.809 | 0.864 | 1.01 | 0.75 | 0.363 | 0.419 | 0.411 | 0.393 | 1.02 | 1.07 | 1.17 | 1.03
2 | NCI-H1666 | 1.07 | 1.06 | 1.02 | 0.954 | 1.16 | 0.727 | 0.762 | 0.872 | 0.79 | 0.707 | 0.627 | 0.669 | 0.548 | 0.823 | 0.863 | 0.889 | 0.902
3 | NCI-H1651 | 0.956 | 1.08 | 0.913 | 0.88 | 1.13 | 0.639 | 0.638 | 0.825 | 0.66 | 0.685 | 0.662 | 0.563 | 0.531 | 0.336 | 0.465 | 0.458 | 0.509
4 | NCI-H1755 | 0.814 | 0.906 | 0.917 | 0.93 | 0.914 | 0.652 | 0.694 | 0.707 | 0.595 | 0.607 | 0.59 | 0.54 | 0.547 | 0.409 | 0.379 | 0.381 | 0.362
5 | NCI-H727 | 0.634 | 0.693 | 0.637 | 0.664 | 0.717 | 0.567 | 0.558 | 0.617 | 0.508 | 0.607 | 0.593 | 0.531 | 0.669 | 0.508 | 0.575 | 0.567 | 0.576
6 | HARA | 0.82 | 0.779 | 0.846 | 0.818 | 0.982 | 0.435 | 0.497 | 0.476 | 0.393 | 0.0958 | 0.111 | 0.0906 | 0.0762 | 0.382 | 0.351 | 0.31 | 0.356
7 | NCI-H647 | 1.37 | 1.31 | 1.35 | 1.19 | 1.11 | 0.565 | 0.716 | 0.69 | 0.502 | 0.318 | 0.224 | 0.288 | 0.259 | 0.294 | 0.381 | 0.482 | 0.335
8 | NCI-H23 | 0.676 | 0.73 | 0.738 | 0.693 | 0.919 | 0.621 | 0.645 | 0.53 | 0.456 | 0.351 | 0.419 | 0.25 | 0.197 | 0.266 | 0.244 | 0.237 | 0.14
9 | LCLC-97TM1 | – | 0.236 | 0.272 | 0.234 | 0.243 | 0.448 | 0.561 | 0.606 | 0.28 | 0.236 | 0.298 | 0.17 | 0.218 | 0.141 | 0.264 | 0.289 | 0.28
10 | EPLC-272H | 0.734 | 0.966 | 1 | 0.991 | 0.804 | 0.283 | 0.278 | 0.299 | 0.268 | 0.246 | 0.394 | 0.365 | 0.307 | 0.242 | 0.175 | 0.204 | 0.234
11 | NCI-H1915 | 1.06 | 1.11 | 0.971 | 1.04 | 0.952 | 0.546 | 0.651 | 0.639 | 0.56 | 0.396 | 0.487 | 0.313 | 0.366 | 0.553 | 0.697 | 0.591 | 0.651
12 | NCI-H3122 | 0.733 | 0.734 | 0.783 | 0.884 | 0.736 | 1 | 0.988 | 1.02 | 0.834 | 0.43 | 0.421 | 0.382 | 0.359 | 0.846 | 0.903 | 1.05 | 0.924
13 | NCI-H441 | 0.71 | 0.73 | 0.987 | 0.655 | 0.728 | 0.47 | 0.606 | 0.482 | 0.388 | 0.602 | 0.529 | 0.588 | 0.488 | 1.18 | 1.19 | 1.35 | 1.14
14 | NCI-H358 | 1.06 | 0.892 | 0.91 | 0.864 | 0.922 | 0.813 | 0.816 | 0.998 | 0.672 | 0.0953 | 0.101 | 0.0969 | 0.165 | 0.45 | 0.567 | 0.509 | 0.46
15 | NCI-H1793 | – | 0.687 | 0.62 | 0.914 | 0.732 | 0.281 | 0.256 | 0.273 | 0.175 | 0.357 | 0.388 | 0.29 | 0.204 | 0.406 | 0.466 | 0.282 | 0.178
16 | PC-14 | 0.883 | 0.996 | 0.959 | 0.934 | 0.935 | 0.747 | 0.778 | 0.933 | 0.699 | 0.527 | 0.628 | 0.609 | 0.472 | 0.218 | 0.305 | 0.396 | 0.458
17 | CAL-12T | 1.21 | 1.32 | 1.11 | 1.35 | 1.27 | 0.571 | 0.523 | 0.568 | 0.418 | 0.317 | 0.259 | 0.268 | 0.265 | 0.548 | 0.554 | 0.611 | 0.5
